Reference: patent US4174406A, “Terpenylaminoalkanol fish toxicants” (priority 1977, dated 1979)
Values after ≈ are worked out from the molar mass of the structure shown.

What was measured:
[1] = test system: Carp; assay: Outdoor plastic pool test (Table 3); assay type: in vivo, Cyprinus carpio; conditions: for % kill: 50% formulation (hydrochloride salt); for survival (in words): larger carp (19 cm)
Experimental: (§1) N-(2-hydroxyethyl) digeranylamine was tested as a selective fish toxicant in outdoor pools stocked with various fish species and lined with black plastic using 50% water soluble formulations (hydrochloride salt). The formulation was added to each of four pools of 4,000-liter capacity at concentrations of 0.10, 0.15, 0.20, and 0.30 mg/liter. Another pool containing the same number, size, and species of fish served as a control. The test water had algal blooms, a pH of about 8.5, and a total hardness of about 200 mg/liter as CaCo3. The temperature was cool enough (15°-16°C.) to permit the use of trout.
(§2) Fish were obtained from state and federal hatcheries and maintained prior to testing by a trained fish culturist. Fish of total length 2-5 cm were used in laboratory tests while for outdoor tests small fish (4-6 cm in length) and larger carp and buffalo (Ictiobus cyprinellus) were used.
(§3) In all tests 10 fish of each were exposed to selective concentrations of the toxicant. Mortalities were observed and recorded at 1,2 and 6 hours on the first day and once daily thereafter, during 96 hour exposure.
(§4) Outdoor pool tests were conducted using 50% formulation of the toxicant N-(2-hydroxyethyl) digeranylamine as indicated in Example 8. […] If selective control of white sucker and common carp is desired in an environment which includes rainbow trout, one should employ an effective concentration of toxicant which is at least as great as 0.05 mg/liter but less than 0.1 mg/liter. As a practical fishery practice in the northern United States and Canada, rainbow trout are not usually stocked in bodies of water containing the common carp species; the habitat conditions including water temperature and available oxygen of these species are usually quite different. Common carp and rainbow trout have quite different oxygen and temperature requirements and these differences generally preclude both species cohabitating under natural conditions. In this case the useful range to control common carp and white sucker can be much broader, i.e. 0.1 to 0.3 mg/liter.

[2] = test system: Dragonfly naiad; assay: Static bioassay in invertebrates (Table 2); assay type: in vivo, Macromia sp.; conditions: 96 hours, tech, 17 C, soft reconstituted water 42 mg/l hardness
Experimental: (§5) The effect of the various toxicants on common invertebrate species was determined in a static test conducted 17° C. The invertebrates tested were collected from natural populations or purchased from commercial suppliers. They were held in soft water in fiberglass tanks in the laboratory or in outdoor plastic swimming pools. Mortality was observed during holding, and only healthy organisms were used for the toxicity tests. At least 10 organisms of nine species were exposed to each concentration in static tests.

[3] = test system: Chinook, coho salmon, rainbow trout, goldfish, fathead, minnow, banded killfish, and walleye; assay: Relative resistance of fish species in laboratory tests; assay type: in vivo; conditions: soft water, 12 C
Experimental: (§6) Laboratory tests were also conducted in soft water 12° C. wherein the toxicant was evaluated against fifteen species of fish including both cold and warm water varieties. In Table 1, the LC 50 toxicity values for N-(2-hydroxyethyl) digeranylamine is shown for various species. LC50 is defined as the amount (mg/liter) of toxicant required to kill 50 percent of the particular fish species at 95% confidence interval.

[4] = test system: Black bullhead; assay: Outdoor plastic pool test (Table 3); assay type: in vivo, Ictalurus melas; conditions: for % kill: 96 hour, 50% formulation (hydrochloride salt)
Experimental: as §1, §2, §3, §4

[5] = test system: Fingernail clam; assay: Static bioassay in invertebrates (Table 2); assay type: in vivo, Sphaerium sp.; conditions: 96 hours, tech, 17 C, limed spring water 22-36 mg/l hardness
Experimental: as §5

[6] = test system: Bluegill; assay: Outdoor plastic pool test (Table 3); assay type: in vivo, Lepomis macrochirus; conditions: for % kill: 96 hour, 50% formulation (hydrochloride salt)
Experimental: as §1, §2, §3, §4

[7] = test system: Lake trout; assay: Laboratory fish toxicity test (Table 1); assay type: in vivo, Salvelinus namaycush; conditions: tech, 12 C, soft water
Experimental: as §2, §3, §6

[8] = test system: Asiade clam; assay: Static bioassay in invertebrates (Table 2); assay type: in vivo, Corbicula sp.; conditions: tech, 17 C, limed spring water 22-36 mg/l hardness
Experimental: as §5

[9] = test system: Goldfish; assay: Laboratory fish toxicity test (Table 1); assay type: in vivo, Carassius auratus; conditions: tech, 12 C, soft water
Experimental: as §2, §3, §6

[10] = test system: bluegill; assay: Toxicity to bluegill in waters of different hardness; assay type: in vivo, bluegill (Lepomis macrochirus)
Experimental: The selective toxicant, N-(2-hydroxyethyl)digeranylamine was evaluated against bluegill in waters of hardness of 12, 44, 170, and 300 p.p.m., total hardness as CaCo3. […] In contrast the specific aminoalkanols of this invention are selective to carp (Caprinus carpio) and effective in waters of high pH.

[11] = test system: Fathead minnow; assay: Outdoor plastic pool test (Table 3); assay type: in vivo, Pimephales promelas; conditions: for % kill: 96 hour, 50% formulation (hydrochloride salt)
Experimental: as §1, §2, §3, §4

[12] = test system: Smallmouth bass; assay: Laboratory fish toxicity test (Table 1); assay type: in vivo, Micropterus dolomieui; conditions: tech, 12 C, soft water
Experimental: as §2, §3, §6

[13] = test system: Rainbow trout; assay: Outdoor plastic pool test (Table 3); assay type: in vivo, Salmo gairdneri; conditions: 96 hour; for % kill: 50% formulation (hydrochloride salt)
Experimental: as §1, §2, §3, §4

[14] = test system: Carp; assay: Laboratory fish toxicity test (Table 1); assay type: in vivo, Cyprinus carpio; conditions: tech, 12 C, soft water
Experimental: as §2, §3, §6

[15] = test system: Walleye; assay: Laboratory fish toxicity test (Table 1); assay type: in vivo, Stizostedion vitreum; conditions: tech, 12 C, soft water
Experimental: as §2, §3, §6

[16] = test system: Rainbow trout; assay: Laboratory fish toxicity test (Table 1); assay type: in vivo, Salmo gairdneri; conditions: tech, 12 C, soft water
Experimental: as §2, §3, §6

[17] = 96 hours, listed as N-(2-hydroxyethyl) Digeranylamine, 5760 min

CC(C)=CCC/C(C)=C/CN(C/C=C(\C)CCC=C(C)C)CCO [N-(2-hydroxyethyl) digeranylamine]
% kill ([1]; carp (large), 0.10 mg/l, 96 hour): 27%
% kill ([1]; carp (large), 0.15 mg/l, 96 hour): 66%
% kill ([1]; carp (large), 0.20 mg/l, 96 hour): 100%
% kill ([1]; carp (large), 0.30 mg/l, 96 hour): 100%
% kill ([1]; carp (small), 0.10 mg/l, 96 hour): 100%
% kill ([1]; carp (small), 0.15 mg/l, 96 hour): 100%
% kill ([1]; carp (small), 0.20 mg/l, 96 hour): 100%
% kill ([1]; carp (small), 0.30 mg/l, 96 hour): 100%
survival (in words) ([1]; 0.2 mg/liter or higher): none survived
survival (in words) ([1]; 0.10 and 0.15 mg/liter): Some white suckers and larger carp (19 cm) survived
kill (in words) ([1]; small common carp (4-6 cm), above 0.10 mg/l, 96 hour): completely eliminated at all concentrations above 0.10 mg/l
LC50 [2]: 2.00 µg/mL (≈ 6 µM)
resistance relative to carp or white suckers [3]: more resistant to the toxicant than carp (Caprinus carpio) or white suckers (Castostmus commersoni)
% kill ([4]; 0.10 mg/l): 0%
% kill ([4]; 0.15 mg/l): 0%
% kill ([4]; 0.20 mg/l): 0%
% kill ([4]; 0.30 mg/l): 0%
survival (in words) ([4]; black bullhead, 0.3 mg/liter, 50% formulation): complete survival
LC50 [5]: 11.5 µg/mL (≈ 34.5 µM)
% kill ([6]; 0.10 mg/l): 0%
% kill ([6]; 0.15 mg/l): 0%
% kill ([6]; 0.20 mg/l): 0%
% kill ([6]; 0.30 mg/l): 0%
survival (in words) ([6]; bluegill, 0.3 mg/liter, 50% formulation): complete survival
LC50 ([7]; 3 hours): 0.109 µg/mL (≈ 0.327 µM)
LC50 ([7]; 6 hours): 0.0700 µg/mL (≈ 0.21 µM)
LC50 ([7]; 24 hours): 0.0470 µg/mL (≈ 0.141 µM)
LC50 ([7]; 96 hours): 0.0570 µg/mL (≈ 0.171 µM)
LC50 ([8]; 28 hours): 56.0 µg/mL (≈ 168 µM)
LC50 ([8]; 96 hours): 9.60 µg/mL (≈ 28.8 µM)
LC50 ([9]; 24 hours): 0.961 µg/mL (≈ 2.88 µM)
LC50 ([9]; 96 hours): 0.290 µg/mL (≈ 0.869 µM)
96-hour LC50 ([10]; total hardness 12 p.p.m. as CaCo3): 0.84 µg/mL
96-hour LC50 ([10]; total hardness 44 p.p.m. as CaCo3): 0.72 µg/mL
96-hour LC50 ([10]; total hardness 170 p.p.m. as CaCo3): 0.46 µg/mL
96-hour LC50 ([10]; total hardness 300 p.p.m. as CaCo3): 0.33 µg/mL
% kill ([11]; 0.10 mg/l): 0%
% kill ([11]; 0.15 mg/l): 10%
% kill ([11]; 0.20 mg/l): 10%
% kill ([11]; 0.30 mg/l): 80%
survival (in words) ([11]; fathead minnows, 0.30 mg/liter and lower, 50% formulation): died at 0.30 mg/liter of toxicant, but all survived lower concentrations
LC50 ([12]; 3 hours): 1.36 µg/mL (≈ 4.08 µM)
LC50 ([12]; 6 hours): 0.480 µg/mL (≈ 1.44 µM)
LC50 ([12]; 24 hours): 0.420 µg/mL (≈ 1.26 µM)
LC50 ([12]; 96 hours, 5760 min): 0.37 µg/mL (≈ 1.11 µM)
LC50 [12, 17]: 0.237 µg/mL (≈ 0.711 µM)
% kill ([13]; 0.10 mg/l): 100%
% kill ([13]; 0.15 mg/l): 100%
% kill ([13]; 0.20 mg/l): 100%
% kill ([13]; 0.30 mg/l): 100%
kill (in words) ([13]; above 0.10 mg/l, 50% formulation): completely eliminated at all concentrations above 0.10 mg/l
LC50 ([14]; 6 hours): 1.34 µg/mL (≈ 4.02 µM)
LC50 ([14]; 24 hours): 0.0718 µg/mL (≈ 0.215 µM)
LC50 ([14]; 96 hours, 5760 min): 0.050 µg/mL (≈ 0.15 µM)
LC50 [14, 17]: 0.0507 µg/mL (≈ 0.152 µM)
LC50 ([15]; 3 hours): 2.78 µg/mL (≈ 8.33 µM)
LC50 ([15]; 6 hours): 1.03 µg/mL (≈ 3.09 µM)
LC50 ([15]; 24 hours): 0.346 µg/mL (≈ 1.04 µM)
LC50 ([15]; 96 hours): 0.239 µg/mL (≈ 0.717 µM)
LC50 ([16]; 3 hours): 0.220 µg/mL (≈ 0.66 µM)
LC50 ([16]; 6 hours): 0.189 µg/mL (≈ 0.567 µM)
LC50 ([16]; 24 hours): 0.187 µg/mL (≈ 0.561 µM)
LC50 ([16]; 96 hours): 0.136 µg/mL (≈ 0.408 µM)
